Laboratory results reported in US8530667B2, “Herbicides” (Syngenta Limited, priority 2007, dated 2013).

Experiments:
Assay type in all cases: in vivo
[1] = system: Alopecurus myosuroides (ALOMY); experiment: Example A pre-emergence herbicidal activity, glasshouse pot test; details: evaluated 19 or 20 days later, read-out: Pre-Emergence Activity ALOMY (100=total damage to plant; 0=no damage to plant); for pest or weed control at 500 g/ha: Rate 500 g/ha; for pest or weed control at 250 g/ha: Rate 250 g/ha
Description: (§1) Seeds of a variety of test species were sown in standard soil in pots. After cultivation for one day (pre-emergence) or after 10 days cultivation (post-emergence) under controlled conditions in a glasshouse, the plants were sprayed with an aqueous spray solution derived from the formulation of the technical active ingredient in 0.6 ml acetone and 45 ml formulation solution containing 10.6% Emulsogen EL (Registry number 61791-12-6), 42.2% N-methylpyrrolidone, 42.2% dipropylene glycol monomethyl ether (Registry number 34590-94-8) and 0.2% X-77 (Registry number 11097-66-8). The test plants were then grown in a greenhouse under optimum conditions until, 14 or 15 days later for post-emergence and 19 or 20 days for pre-emergence, the test was evaluated (100=total damage to plant; 0=no damage to plant). Alopecurus myosuroides (ALOMY), Avena fatua (AVEFA), Lolium perenne (LOLPE), Setaria faberi (SETFA), Digitaria sanguinalis (DIGSA), Echinochloa crus-galli (ECHCG)

Avena fatua (AVEFA) [2] = experiment: as above; details: evaluated 19 or 20 days later, read-out: Pre-Emergence Activity AVEFA (100=total damage to plant; 0=no damage to plant); for pest or weed control at 500 g/ha: Rate 500 g/ha; for pest or weed control at 250 g/ha: Rate 250 g/ha
Description: as §1

[3] = system: Digitaria sanguinalis (DIGSA); experiment: as above; details: evaluated 19 or 20 days later, read-out: Pre-Emergence Activity DIGSA (100=total damage to plant; 0=no damage to plant); for pest or weed control at 500 g/ha: Rate 500 g/ha; for pest or weed control at 250 g/ha: Rate 250 g/ha
Description: as §1

[4] = system: Echinochloa crus-galli (ECHCG); experiment: as above; details: evaluated 19 or 20 days later, read-out: Pre-Emergence Activity ECHCG (100=total damage to plant; 0=no damage to plant); for pest or weed control at 500 g/ha: Rate 500 g/ha; for pest or weed control at 250 g/ha: Rate 250 g/ha
Description: as §1

Lolium perenne (LOLPE) [5] = experiment: as above; details: evaluated 19 or 20 days later, read-out: Pre-Emergence Activity LOLPE (100=total damage to plant; 0=no damage to plant); for pest or weed control at 500 g/ha: Rate 500 g/ha; for pest or weed control at 250 g/ha: Rate 250 g/ha
Description: as §1

Setaria faberi (SETFA) [6] = experiment: as above; details: evaluated 19 or 20 days later, read-out: Pre-Emergence Activity SETFA (100=total damage to plant; 0=no damage to plant); for pest or weed control at 500 g/ha: Rate 500 g/ha; for pest or weed control at 250 g/ha: Rate 250 g/ha
Description: as §1

[7] = system: Alopecurus myosuroides (ALOMY); experiment: Example A post-emergence herbicidal activity, glasshouse pot test; details: Rate 125 g/ha, evaluated 14 or 15 days later, read-out: Post-Emergence Activity ALOMY (100=total damage to plant; 0=no damage to plant)
Description: as §1

Avena fatua (AVEFA) [8] = experiment: as above; details: Rate 125 g/ha, evaluated 14 or 15 days later, read-out: Post-Emergence Activity AVEFA (100=total damage to plant; 0=no damage to plant)
Description: as §1

[9] = system: Digitaria sanguinalis (DIGSA); experiment: as above; details: Rate 125 g/ha, evaluated 14 or 15 days later, read-out: Post-Emergence Activity DIGSA (100=total damage to plant; 0=no damage to plant)
Description: as §1

[10] = system: Echinochloa crus-galli (ECHCG); experiment: as above; details: Rate 125 g/ha, evaluated 14 or 15 days later, read-out: Post-Emergence Activity ECHCG (100=total damage to plant; 0=no damage to plant)
Description: as §1

Lolium perenne (LOLPE) [11] = experiment: as above; details: Rate 125 g/ha, evaluated 14 or 15 days later, read-out: Post-Emergence Activity LOLPE (100=total damage to plant; 0=no damage to plant)
Description: as §1

Setaria faberi (SETFA) [12] = experiment: as above; details: Rate 125 g/ha, evaluated 14 or 15 days later, read-out: Post-Emergence Activity SETFA (100=total damage to plant; 0=no damage to plant)
Description: as §1

Row | Structure (SMILES) | pest or weed control at 500 g/ha [1] [%] | pest or weed control at 500 g/ha (Avena fatua (AVEFA) [2]) [%] | pest or weed control at 500 g/ha [3] [%] | pest or weed control at 500 g/ha [4] [%] | pest or weed control at 500 g/ha (Lolium perenne (LOLPE) [5]) [%] | pest or weed control at 500 g/ha (Setaria faberi (SETFA) [6]) [%] | pest or weed control at 125 g/ha [7] [%] | pest or weed control at 125 g/ha (Avena fatua (AVEFA) [8]) [%] | pest or weed control at 125 g/ha [9] [%] | pest or weed control at 125 g/ha [10] [%] | pest or weed control at 125 g/ha (Lolium perenne (LOLPE) [11]) [%] | pest or weed control at 125 g/ha (Setaria faberi (SETFA) [12]) [%] | pest or weed control at 250 g/ha [1] [%] | pest or weed control at 250 g/ha (Avena fatua (AVEFA) [2]) [%] | pest or weed control at 250 g/ha [3] [%] | pest or weed control at 250 g/ha [4] [%] | pest or weed control at 250 g/ha (Lolium perenne (LOLPE) [5]) [%] | pest or weed control at 250 g/ha (Setaria faberi (SETFA) [6]) [%]
1 | Cc1sc(-c2ccc(Cl)cc2)cc1C1C(=O)[C@@H]2[C@H](C1=O)[C@H]1CC[C@@H]2O1 (stereo partly drawn) [Compound T12] | 10 | 20 | 0 | 30 | 10 | 20 | 80 | 80 | 80 | 80 | 30 | 70 |  |  |  |  |  | 
2 | Cc1csc(C)c1C1C(=O)[C@@H]2[C@H](C1=O)[C@H]1CC[C@@H]2O1 (stereo partly drawn) [Compound T10] |  |  |  |  |  |  | 10 | 40 | 40 | 60 | 20 | 60 | 10 | 10 | 30 | 30 | 20 | 0
3 | CCc1sc(-c2ccc(Cl)cc2)nc1C1C(=O)[C@@H]2[C@H](C1=O)[C@@]1(C)CC[C@]2(C)O1 (stereo partly drawn) [Compound T27] |  |  |  |  |  |  | 80 | 90 | 100 | 100 | 40 | 80 | 70 | 60 | 100 | 70 | 90 | 100
4 | Cc1scc(Br)c1C1C(=O)[C@@H]2[C@H](C1=O)[C@H]1CC[C@@H]2O1 (stereo partly drawn) [Compound T4] | 70 | 70 | 30 | 70 | 70 | 70 | 10 | 30 | 60 | 80 | 40 | 40 |  |  |  |  |  | 
5 | Cc1sc(Br)cc1C1C(=O)[C@@H]2[C@H](C1=O)[C@H]1CC[C@@H]2O1 (stereo partly drawn) [Compound T5] | 0 | 20 | 0 | 0 | 0 | 0 | 10 | 10 | 30 | 0 | 0 | 10 |  |  |  |  |  | 
6 | CCc1sc(-c2ccc(Cl)cc2)nc1C1C(=O)[C@H]2[C@@H]3CC[C@@](C)(O3)[C@H]2C1=O (mixture of isomers) [Compound T25, 4-[2-(4-chloro-phenyl)-5-ethyl-thiazol-4-yl]-1-methyl-10-oxa-tricyclo[5.2.1.0*2,6*]decane-3,5-dione] |  |  |  |  |  |  | 100 | 100 | 100 | 100 | 50 | 90 | 90 | 90 | 100 | 100 | 100 | 100
7 | CCc1sc(-c2ccc(Cl)cc2)nc1C1C(=O)[C@@H]2[C@H](C1=O)[C@H]1CC[C@@H]2O1 (stereo partly drawn) [Compound T23, 4-[2-(4-chloro-phenyl)-5-ethyl-thiazol-4-yl]-10-oxa-tricyclo[5.2.1.0*2,6*]decane-3,5-dione] | 100 | 90 | 100 | 100 | 90 | 100 | 100 | 100 | 100 | 100 | 100 | 100 |  |  |  |  |  | 
8 | Cc1sc(-c2ccccn2)cc1C1C(=O)[C@@H]2[C@H](C1=O)[C@H]1CC[C@@H]2O1 (stereo partly drawn) [Compound T6] | 0 | 60 | 0 | 0 | 0 | 0 | 10 | 10 | 20 | 30 | 10 | 40 |  |  |  |  |  | 
9 | CCc1c(Br)sc(C)c1C1C(=O)[C@@H]2[C@H](C1=O)[C@H]1CC[C@@H]2O1 (stereo partly drawn) [Compound T14, 4-(5-bromo-4-ethyl-2-methyl-thiophen-3-yl)-10-oxa-tricyclo[5.2.1.0*2,6*]decane-3,5-dione] |  |  |  |  |  |  | 90 | 100 | 60 | 100 | 80 | 80 | 90 | 60 | 70 | 90 | 100 | 100
10 | CCc1csc(CC)c1C1C(=O)[C@@H]2[C@H](C1=O)[C@H]1CC[C@@H]2O1 (stereo partly drawn) [Compound T15] |  |  |  |  |  |  | 50 | 40 | 40 | 90 | 40 | 70 | 70 | 10 | 30 | 90 | 10 | 20
11 | Cc1sc(-c2ccc(Cl)cc2)nc1C1C(=O)[C@@H]2[C@H](C1=O)[C@@]1(C)CC[C@]2(C)O1 (stereo partly drawn) [Compound T26] |  |  |  |  |  |  | 10 | 0 | 30 | 0 | 0 | 0 | 90 | 60 | 100 | 80 | 70 | 100
